According to ChEMBL document CHEMBL1201861, “Genomics of Drug Sensitity in Cancer screening data, Wellcome Trust Sanger Institute”:
Counter-ions that a name gives are not always drawn.

Columns and labels:
DBTRG-05MG = test: cells; format: functional, cell-based, Homo sapiens; settings: Homo sapiens, DBTRG-05MG;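 note: cell viability assay measuring growth inhibition of human DBTRG-05MG cells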
Description: SANGER: Inhibition of human DBTRG-05MG cell growth in a cell viability assay.

Daoy = test: cells; format: functional, cell-based, Homo sapiens; settings: Homo sapiens, Daoy
Description: SANGER: Inhibition of human Daoy cell growth in a cell viability assay.

EFO-27 = test: cells; format: functional, cell-based, Homo sapiens; settings: Homo sapiens, EFO-27;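 note: growth inhibition of EFO-27 cells, read out with a cell viability assay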
Description: SANGER: Inhibition of human EFO-27 cell growth in a cell viability assay.

EGI-1 = test: cells; format: functional, cell-based, Homo sapiens; settings: Homo sapiens, EGI-1;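 note: cell viability readout used to gauge growth inhibition of EGI-1 cells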
Description: SANGER: Inhibition of human EGI-1 cell growth in a cell viability assay.

EVSA-T = test: cells; format: functional, cell-based, Homo sapiens; settings: Homo sapiens, EVSA-T;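 note: growth inhibition of EVSA-T cells, read out with a cell viability assay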
Description: SANGER: Inhibition of human EVSA-T cell growth in a cell viability assay.

HCC1395 = test: cells; format: functional, cell-based, Homo sapiens; settings: Homo sapiens, HCC1395;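 note: growth inhibition of HCC1395 cells, read out by a cell viability assay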
Description: SANGER: Inhibition of human HCC1395 cell growth in a cell viability assay.

HCC1419 = test: cells; format: functional, cell-based, Homo sapiens; settings: Homo sapiens, HCC1419;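 note: growth inhibition of human HCC1419 cells, read out as cell viability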
Description: SANGER: Inhibition of human HCC1419 cell growth in a cell viability assay.

HCT-116 = test: cells; format: functional, cell-based, Homo sapiens; settings: Homo sapiens, HCT-116
Description: SANGER: Inhibition of human HCT-116 cell growth in a cell viability assay.

HEC-1 = test: cells; format: functional, cell-based, Homo sapiens; settings: Homo sapiens, HEC-1
Description: SANGER: Inhibition of human HEC-1 cell growth in a cell viability assay.

HGC-27 = test: cells; format: functional, cell-based, Homo sapiens; settings: Homo sapiens, HGC-27;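 note: growth inhibition of human HGC-27 cells, read out in a cell viability assay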
Description: SANGER: Inhibition of human HGC-27 cell growth in a cell viability assay.

IGR-1 = test: cells; format: functional, cell-based, Homo sapiens; settings: Homo sapiens, IGR-1;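 note: growth inhibition of human IGR-1 cells, read out with a cell viability assay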
Description: SANGER: Inhibition of human IGR-1 cell growth in a cell viability assay.

KOSC-2 = test: cells; format: functional, cell-based, Homo sapiens; settings: Homo sapiens, KOSC-2;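 note: growth inhibition of KOSC-2 cells, read out by a cell viability assay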
Description: SANGER: Inhibition of human KOSC-2 cell growth in a cell viability assay.

KYSE-520 cell line = test: cells; format: functional, cell-based, Homo sapiens; settings: Homo sapiens, KYSE-520;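 note: growth inhibition of human KYSE-520 cells, read out with a viability assay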
Description: SANGER: Inhibition of human KYSE-520 cell growth in a cell viability assay.

MDA-MB-175-VII = test: cells; format: functional, cell-based, Homo sapiens; settings: Homo sapiens, MDA-MB-175-VII
MDA-MB-231 = test: cells; format: functional, cell-based, Homo sapiens; settings: Homo sapiens, MDA-MB-231
Description: SANGER: Inhibition of human MDA-MB-231 cell growth in a cell viability assay.

MHH-ES-1 = test: cells; format: functional, cell-based, Homo sapiens; settings: Homo sapiens, MHH-ES-1
Description: SANGER: Inhibition of human MHH-ES-1 cell growth in a cell viability assay.

MONO-MAC-6 = test: cells; format: functional, cell-based, Homo sapiens; settings: Homo sapiens, MONO-MAC-6;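 note: cell viability assay measuring growth inhibition of human MONO-MAC-6 cells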
Description: SANGER: Inhibition of human MONO-MAC-6 cell growth in a cell viability assay.

NALM-6 = test: cells; format: functional, cell-based, Homo sapiens; settings: Homo sapiens, NALM-6;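 note: growth inhibition of NALM-6 cells, read out with a cell viability assay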
Description: SANGER: Inhibition of human NALM-6 cell growth in a cell viability assay.

NCI-H1573 = test: cells; format: functional, cell-based, Homo sapiens; settings: Homo sapiens, NCI-H1573;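 note: growth inhibition of NCI-H1573 cells, read out with a cell viability assay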
Description: SANGER: Inhibition of human NCI-H1573 cell growth in a cell viability assay.

NCI-H2087 = test: cells; format: functional, cell-based, Homo sapiens; settings: Homo sapiens, NCI-H2087;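 note: growth inhibition determined with a cell viability readout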
Description: SANGER: Inhibition of human NCI-H2087 cell growth in a cell viability assay.

NCI-H292 = test: cells; format: functional, cell-based, Homo sapiens; settings: Homo sapiens, NCI-H292;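 note: growth inhibition of NCI-H292 cells, read out with a cell viability assay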
Description: SANGER: Inhibition of human NCI-H292 cell growth in a cell viability assay.

NCI-H889 = test: cells; format: functional, cell-based, Homo sapiens; settings: Homo sapiens, NCI-H889
Description: SANGER: Inhibition of human NCI-H889 cell growth in a cell viability assay.

OVCAR-8 = test: cells; format: functional, cell-based, Homo sapiens; settings: Homo sapiens, OVCAR-8;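 note: growth inhibition of human OVCAR-8 cells, read out by a cell viability assay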
Description: SANGER: Inhibition of human OVCAR-8 cell growth in a cell viability assay.

P31-FUJ = test: cells; format: functional, cell-based, Homo sapiens; settings: Homo sapiens, P31-FUJ;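 note: growth inhibition of P31-FUJ cells, read out with a viability assay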
Description: SANGER: Inhibition of human P31-FUJ cell growth in a cell viability assay.

PANC-03-27 = test: cells; format: functional, cell-based, Homo sapiens; settings: Homo sapiens, PANC-03-27
Description: SANGER: Inhibition of human PANC-03-27 cell growth in a cell viability assay.

RPMI-6666 = test: cells; format: functional, cell-based, Homo sapiens; settings: Homo sapiens, RPMI-6666
Description: SANGER: Inhibition of human RPMI-6666 cell growth in a cell viability assay.

RPMI 8402 = test: SANGER: Inhibition of human RPMI-8402 cell growth in a cell viability assay.; format: functional, cell-based; settings: Homo sapiens, RPMI 8402; read-out: IC50
S-117 = test: cells; format: functional, cell-based, Homo sapiens; settings: Homo sapiens, S-117
Description: SANGER: Inhibition of human S-117 cell growth in a cell viability assay.

SCC-4 = test: cells; format: functional, cell-based, Homo sapiens; settings: Homo sapiens, SCC-4;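 note: growth inhibition of human SCC-4 cells, read out as cell viability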
Description: SANGER: Inhibition of human SCC-4 cell growth in a cell viability assay.

SIMA = test: cells; format: functional, cell-based, Homo sapiens; settings: Homo sapiens, SIMA;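 note: growth inhibition of SIMA cells, measured with a cell viability readout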
Description: SANGER: Inhibition of human SIMA cell growth in a cell viability assay.

SK-LU-1 = test: cells; format: functional, cell-based, Homo sapiens; settings: Homo sapiens, SK-LU-1;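 note: cell viability assay measuring growth inhibition of human SK-LU-1 cells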
Description: SANGER: Inhibition of human SK-LU-1 cell growth in a cell viability assay.

SNU-423 = test: cells; format: functional, cell-based, Homo sapiens; settings: Homo sapiens, SNU-423
Description: SANGER: Inhibition of human SNU-423 cell growth in a cell viability assay.

SNU-449 = test: cells; format: functional, cell-based, Homo sapiens; settings: Homo sapiens, SNU-449
Description: SANGER: Inhibition of human SNU-449 cell growth in a cell viability assay.

A-431 = test: cells; format: functional, cell-based, Homo sapiens; settings: Homo sapiens, A-431;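 note: growth inhibition of A-431 cells, determined with a cell viability read-out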
Description: SANGER: Inhibition of human A431 cell growth in a cell viability assay.

AGS = test: cells; format: functional, cell-based, Homo sapiens; settings: Homo sapiens, AGS;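 note: growth inhibition of AGS cells, determined with a cell viability assay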
Description: SANGER: Inhibition of human AGS cell growth in a cell viability assay.

BC1 cell line = test: SANGER: Inhibition of human BC-1 cell growth in a cell viability assay.; format: functional, cell-based; settings: Homo sapiens, BC1
BPH-1 = test: cells; format: functional, cell-based, Homo sapiens; settings: Homo sapiens, BPH-1;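 note: cell viability assay measuring growth inhibition of human BPH-1 cells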
Description: SANGER: Inhibition of human BPH-1 cell growth in a cell viability assay.

BXPC-3 = test: cells; format: functional, cell-based, Homo sapiens; settings: Homo sapiens, BXPC-3;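 note: growth inhibition of human BxPC-3 cells, read out by a cell viability assay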
Description: SANGER: Inhibition of human BxPC-3 cell growth in a cell viability assay.

C3A = test: cells; format: functional, cell-based, Homo sapiens; settings: Homo sapiens, C3A;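 note: growth inhibition of C3A human cells, quantified with a cell viability readout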
Description: SANGER: Inhibition of human C3A cell growth in a cell viability assay.

CA46 = test: cells; format: functional, cell-based, Homo sapiens; settings: Homo sapiens, CA46;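 note: growth inhibition of human CA46 cells, read out by a cell viability assay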
Description: SANGER: Inhibition of human CA46 cell growth in a cell viability assay.

CAKI-1 = test: cells; format: functional, cell-based, Homo sapiens; settings: Homo sapiens, CAKI-1;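 note: growth inhibition of CAKI-1 cells, measured by a cell viability assay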
Description: SANGER: Inhibition of human CAKI-1 cell growth in a cell viability assay.

U-251 = test: cells; format: functional, cell-based, Homo sapiens; settings: Homo sapiens, U-251;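 note: growth inhibition of human U-251 cells, read out through a cell viability assay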
Description: SANGER: Inhibition of human U251 cell growth in a cell viability assay.

YAPC = test: cells; format: functional, cell-based, Homo sapiens; settings: Homo sapiens, YAPC;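 note: growth inhibition of YAPC cells, measured with a cell viability assay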
Description: SANGER: Inhibition of human YAPC cell growth in a cell viability assay.

CHP-126 = test: cells; format: functional, cell-based, Homo sapiens; settings: Homo sapiens, CHP-126
Description: SANGER: Inhibition of human CHP-126 cell growth in a cell viability assay.

CMK = test: cells; format: functional, cell-based, Homo sapiens; settings: Homo sapiens, CMK
Description: SANGER: Inhibition of human CMK cell growth in a cell viability assay.

`Nc1ccn([C@@H]2O[C@H](CO)[C@@H](O)C2(F)F)c(=O)n1` [GEMCITABINE] was tested, and the IC50 (DBTRG-05MG) was 122 nM, the IC50 (Daoy) was < 4 nM and the IC50 (EFO-27) was 9.05 nM. The IC50 (EGI-1) was 214 nM, the IC50 (EVSA-T) was > 1020 nM and the IC50 (HCC1395) was > 1020 nM. The IC50 (HCC1419) was > 1020 nM, the IC50 (HCT-116) was 50.8 nM and the IC50 (HEC-1) was 124 nM. For the same molecule, the IC50 (HGC-27) was 9.6 nM, the IC50 (IGR-1) was 14.4 nM and the IC50 (KOSC-2) was > 1020 nM. For the same molecule, the IC50 (KYSE-520 cell line) was 92.8 nM, the IC50 (MDA-MB-175-VII) was > 1020 nM and the IC50 (MDA-MB-231) was 27.8 nM. For the same molecule, the IC50 (MHH-ES-1) was < 4 nM, the IC50 (MONO-MAC-6) was 24.8 nM and the IC50 (NALM-6) was < 4 nM. For the same molecule, the IC50 (NCI-H1573) was > 1020 nM, the IC50 (NCI-H2087) was 2.14 nM and the IC50 (NCI-H292) was 20.8 nM. For the same molecule, the IC50 (NCI-H889) was > 1020 nM, the IC50 (OVCAR-8) was 7.9 nM and the IC50 (P31-FUJ) was > 1020 nM. For the same molecule, the IC50 (PANC-03-27) was 3.51 nM, the IC50 (RPMI-6666) was < 4 nM and the IC50 (RPMI 8402) was 45.9 nM. The IC50 (S-117) was > 1020 nM, the IC50 (SCC-4) was 212 nM and the IC50 (SIMA) was 161 nM. The IC50 (SK-LU-1) was < 4 nM, the IC50 (SNU-423) was 62.5 nM and the IC50 (SNU-449) was 13.8 nM. The IC50 (A-431) was < 4 nM, the IC50 (AGS) was < 4 nM and the IC50 (BC1 cell line) was 33.8 nM. For the same molecule, the IC50 (BPH-1) was 20.3 nM, the IC50 (BXPC-3) was 36.9 nM and the IC50 (C3A) was 8.84 nM. For the same molecule, the IC50 (CA46) was 293 nM, the IC50 (CAKI-1) was > 1020 nM and the IC50 (U-251) was 22.3 nM. The IC50 (YAPC) was > 1020 nM, the IC50 (CHP-126) was 24.1 nM and the IC50 (CMK) was < 4 nM.

For `O=C(O)c1ccc(-c2c[nH]c3ncc(-c4ccccc4)cc23)cc1C1CCCC1` [GSK-650394], the IC50 (DBTRG-05MG) was > 16000 nM, the IC50 (Daoy) was 515 nM and the IC50 (EFO-27) was 15400 nM. For the same molecule, the IC50 (EGI-1) was > 16000 nM, the IC50 (EVSA-T) was > 16000 nM and the IC50 (HCC1395) was > 16000 nM. For the same molecule, the IC50 (HCC1419) was > 16000 nM, the IC50 (HCT-116) was > 16000 nM and the IC50 (HEC-1) was > 16000 nM. The IC50 (HGC-27) was 1310 nM, the IC50 (IGR-1) was 4230 nM and the IC50 (KOSC-2) was > 16000 nM. The IC50 (KYSE-520 cell line) was > 16000 nM, the IC50 (MDA-MB-175-VII) was > 16000 nM and the IC50 (MDA-MB-231) was > 16000 nM. For the same molecule, the IC50 (MHH-ES-1) was 13600 nM, the IC50 (MONO-MAC-6) was 1180 nM and the IC50 (NALM-6) was 9730 nM. For the same molecule, the IC50 (NCI-H1573) was > 16000 nM, the IC50 (NCI-H2087) was 13400 nM and the IC50 (NCI-H292) was > 16000 nM. For the same molecule, the IC50 (NCI-H889) was > 16000 nM, the IC50 (OVCAR-8) was 11300 nM and the IC50 (P31-FUJ) was > 16000 nM. The IC50 (PANC-03-27) was > 16000 nM, the IC50 (RPMI-6666) was > 16000 nM and the IC50 (RPMI 8402) was > 16000 nM. For the same molecule, the IC50 (S-117) was > 16000 nM, the IC50 (SCC-4) was > 16000 nM and the IC50 (SIMA) was > 16000 nM. For the same molecule, the IC50 (SK-LU-1) was 3970 nM, the IC50 (SNU-423) was > 16000 nM and the IC50 (SNU-449) was > 16000 nM. For the same molecule, the IC50 (A-431) was 1860 nM, the IC50 (AGS) was 8560 nM and the IC50 (BC1 cell line) was 2520 nM. The IC50 (BPH-1) was > 16000 nM, the IC50 (BXPC-3) was > 16000 nM and the IC50 (C3A) was > 16000 nM. The IC50 (CA46) was > 16000 nM, the IC50 (CAKI-1) was > 16000 nM and the IC50 (U-251) was > 16000 nM. For the same molecule, the IC50 (YAPC) was > 16000 nM, the IC50 (CHP-126) was > 16000 nM and the IC50 (CMK) was 8250 nM.

Work on `COC1=CC(c2cc3ccccc3[nH]2)=N/C1=C\c1[nH]c(C)cc1C` [OBATOCLAX MESYLATE] yielded an IC50 (DBTRG-05MG) of 2060 nM, an IC50 (Daoy) of 56.2 nM and an IC50 (EFO-27) of 340 nM. For the same molecule, the IC50 (EGI-1) was 1580 nM, the IC50 (EVSA-T) was 817 nM and the IC50 (HCC1395) was 1930 nM. It also gave an IC50 (HCC1419) of 1830 nM, an IC50 (HCT-116) of 88 nM and an IC50 (HEC-1) of 36.8 nM. For the same molecule, the IC50 (HGC-27) was < 62.5 nM, the IC50 (IGR-1) was < 62.5 nM and the IC50 (KOSC-2) was 9630 nM. The IC50 (KYSE-520 cell line) was 483 nM, the IC50 (MDA-MB-175-VII) was 1690 nM and the IC50 (MDA-MB-231) was 801 nM. The IC50 (MHH-ES-1) was 186 nM, the IC50 (MONO-MAC-6) was 438 nM and the IC50 (NALM-6) was < 62.5 nM. For the same molecule, the IC50 (NCI-H1573) was 3200 nM, the IC50 (NCI-H2087) was 130 nM and the IC50 (NCI-H292) was 176 nM. The IC50 (NCI-H889) was > 16000 nM, the IC50 (OVCAR-8) was 31.1 nM and the IC50 (P31-FUJ) was > 16000 nM. For the same molecule, the IC50 (PANC-03-27) was 96.7 nM, the IC50 (RPMI-6666) was 89.7 nM and the IC50 (RPMI 8402) was 18.6 nM. The IC50 (S-117) was 29.1 nM, the IC50 (SCC-4) was 2140 nM and the IC50 (SIMA) was 494 nM. For the same molecule, the IC50 (SK-LU-1) was 134 nM, the IC50 (SNU-423) was 129 nM and the IC50 (SNU-449) was 208 nM. The IC50 (A-431) was 88 nM, the IC50 (AGS) was 386 nM and the IC50 (BC1 cell line) was 60.2 nM. It also gave an IC50 (BPH-1) of 563 nM, an IC50 (BXPC-3) of 74.6 nM and an IC50 (C3A) of 374 nM. It also gave an IC50 (CA46) of 65.4 nM, an IC50 (CAKI-1) of 1720 nM and an IC50 (U-251) of 335 nM. The IC50 (YAPC) was 5990 nM, the IC50 (CHP-126) was 1570 nM and the IC50 (CMK) was 30.2 nM.
